Values joined by “and” are separate entries in the source; they are usually repeats but may differ in a detail not shown here. Equal values may be shown once. After the bases stand the sugars from the 5' end (letter, count) and the backbone: PS all phosphorothioate, else s phosphorothioate and o phosphodiester by linkage. Methylation of C is not given here. e = 2'-O-(2-methoxyethyl) (MOE); k = constrained ethyl (cEt); d = 2'-deoxy (DNA)
Molecular target: IRF5
Conditions: ASO

Row | Sequence | target mRNA inhibition (KARPAS-229, 4 µM) | other results
1 | AGGAGTGAGACGAGCA (sugars kkkddddddddkekek, PS) | 24% | –
2 | TAGGACGAGTTATGGG (sugars k3 d10 k3, PS) | 25% | –
3 | TTATCTCCGTCCTGGC (sugars kkdddddddddkekek, PS) | 0% | –
4 | GTGAGTCTCAAACCAG (sugars kkkddddddddkekek, PS) | 0% | –
5 | GCTTGGTCTTGACCTC (sugars kekdddddddddeekk, PS) | 46% | –
6 | GTCTTGACCTCCCGCT (sugars kkdddddddddkekek, PS) | 40% | –
7 | AGATGGTGTTATCTCC (sugars kekdddddddddeekk, PS) | 0% | –
8 | ATGAGTCATGGGCTGA (sugars kekddddddddkeekk, PS) | 0% | –
9 | TATTTCTGCTCCAGGT (sugars k2 d8 e4 k2, PS) | 43% | –
10 | TGCACTGACACAGGCG (sugars kkdddddddddkekek, PS) | 0% | –
11 | CATTCCATATACACAC (sugars k2 d8 e4 k2, PS) | 21% | –
12 | CATTCCATATACACAC (sugars kkkdddddddddkeke, PS) | 28% | –
13 | GTCTTGACCTCCCGCT (sugars kkkddddddddkekek, PS) | 23% | –
14 | TATCTCCGTCCTGGCT (sugars kkddddddddkekekk, PS) | 6% | –
15 | GGTGTATTTCCCTGTC (sugars kkdddddddddkekek, PS) | 26% | –
16 | CCAATGCAACATCCAT (sugars kkdddddddddkdkdk, PS) | 0% | –
17 | ATCACCACTGTGTACC (sugars kkddddddddddkeke, PS) | 0% | –
18 | GCTGTCACATCTCCAC (sugars kkkdddddddddkeke, PS) | 3% | –
19 | GTCTGGCCCTTTTGGA (sugars kkddddddddkekekk, PS) | 0% | –
20 | ACTGACACAGGCGGAT (sugars k2 d8 e4 k2, PS) | 0% | –
21 | GTCTTGACCTCCCGCT (sugars kkdddddddddkdkdk, PS) | 46% | –
22 | TCACCACTGTGTACCC (sugars k2 d9 e3 k2, PS) | 0% | –
23 | GTCTTTGAGGTCTGGG (sugars kddddddddddkekek, PS) | 0% | –
24 | AGGGTGAGTAGGACGA (sugars k3 d10 k3, PS) | 19% | –
25 | AATTTTGTGACTGTAT (sugars k3 d10 k3, PS) | 0% | –

Row | Sequence | target mRNA inhibition (KARPAS-229, 4 µM) | other results
26 | GCTTGGTCTTGACCTC (sugars kkdddddddddkekek, PS) | 33% | –
27 | AAGGGCACAGCGCAGG (sugars k3 d9 k3 e1, PS) | 3% | –
28 | CCCAATGCAACATCCA (sugars kkkddddddddkekek, PS) | 0% | –
29 | CCACTGTGTACCCCAT (sugars k3 d9 k3 e1, PS) | 57% | –
30 | ACCATTCTATGCCTTT (sugars k3 d10 k3, PS) | 70% and 74% | target mRNA inhibition (KARPAS-229, 0.44444 µM): 44%; target mRNA inhibition (KARPAS-229, 1.33333 µM): 60%; target mRNA inhibition (KARPAS-229, 12 µM): 86%
31 | GATGGTGTTATCTCCG (sugars k3 d9 k3 e1, PS) | 0% | –
32 | CAGGTTCTTGGACTCT (sugars kekdddddddddeekk, PS) | 48% and 62% | target mRNA inhibition (KARPAS-229, 0.44444 µM): 34%; target mRNA inhibition (KARPAS-229, 1.33333 µM): 48%; target mRNA inhibition (KARPAS-229, 12 µM): 74%
33 | GTGAGTCTCAAACCAG (sugars kkkddddddddkdkdk, PS) | 0% | –
34 | TTATTTCTGCTCCAGG (sugars kkkddddddddkdkdk, PS) | 57% and 67% | target mRNA inhibition (KARPAS-229, 0.44444 µM): 42%; target mRNA inhibition (KARPAS-229, 1.33333 µM): 62%; target mRNA inhibition (KARPAS-229, 12 µM): 79%
35 | TCTTGACCTCCCGCTG (sugars kdddddddddkekeke, PS) | 40% | –
36 | AGTCATGGGCGTGAGGC (sugars kdddddddddkekeked, PS) | 17% | –
37 | CTGTCACATCTCCACA (sugars kkdddddddddkdkdk, PS) | 6% | –
38 | GTCTGGCCCTTTTGGA (sugars kkdddddddddkdkdk, PS) | 0% | –
39 | GGAGTGAGACGAGCAA (sugars kkdddddddddkdkdk, PS) | 16% | –
40 | GAGTCATGGGCTGAGG (sugars kdddddddddkekeke, PS) | 0% | –
41 | GCACTGACACAGGCGG (sugars k3 d10 k3, PS) | 14% and 0% | –
42 | CAGGTTCTTGGACTCT (sugars kkdddddddddkekek, PS) | 0% | –
43 | ACCATTCTATGCCTTT (sugars kddddddddddkekek, PS) | 0% | –
44 | GTGTATTTCCCTGTCT (sugars kkddddddddddkeke, PS) | 0% | –
45 | CACTGACACAGGCGGA (sugars kdddddddddddekek, PS) | 0% | –
46 | AAGGGCACAGCGCAGG (sugars kkkdddddddddkeke, PS) | 0% | –
47 | GAGTCATGGGCTGAGG (sugars kkddddddddkekekk, PS) | 0% | –
48 | ATGAGTCATGGGCTGA (sugars k3 d10 k3, PS) | 21% | –
49 | AGGAAGTGAGTCTCAA (sugars kkkdddddddddkeke, PS) | 21% | –
50 | CGGTCTTTGAGGTCTG (sugars kkkdddddddddkeke, PS) | 38% | –

From the OligoGym collection
